From patent US20100008971A1, “CHEWING COMPOSITION COMPRISING COENZYME Q10” (SAN-EI GEN F.F.I., INC., priority 2006, published 2010)

Columns and labels:
[1] = Release of Coenzyme Q10 into saliva from sugar-coated gums with the sample in the sugar coating, chewed by four subjects; type: in vivo, human; settings: sugar-coated gum, 0.020 wt % CoQ10 in gum, one piece (1.5 g) chewed 5 min, 60 times/min
Description: Sugar-coated gums (1.5 g/tablet) each comprising Coenzyme Q10 in the sugar coating were prepared in the manner described below such that the content of Coenzyme Q10 in 100 g of the sugar-coated gum was 20 mg.
A gum base (trade name: Gum Base LT2, manufactured by Lotte, Co., Ltd.) was kneaded at 70° C. with xylitol, corn syrup and glycerol, and after the addition of Lemon Oil No. 2451* (flavoring agent), the mixture was cooled to room temperature and molded to a tablet shape.
Maltitol and gum arabic were added to water and dissolved by heating. After cooling the mixture to room temperature, one each of Sample 1, 2, 4, 5 or 6 was added and mixed homogeneously.
The sugar solutions thus obtained were each spray dried over the gum centers using a coating pan and dried. The proportion of the sugar-coating layer was 50 parts by weight to 100 parts by weight of the gum center. […]
Each type of the sugar-coated gums prepared above were sampled in a precise amount of 6 g (total weight of four pieces), and one piece each of these gums was chewed by four subjects under the same conditions as in Test Example 1. […] The samples were subjected to HPLC under the same conditions to determine the contents of Coenzyme Q10 in the chewed gums, and then the release of Coenzyme Q10 into saliva from these gums was evaluated as in Test Example 1.

[2] = Release of Coenzyme Q10 into saliva from stick gums chewed by four subjects (HPLC of chewed gum); type: in vivo, human; settings: 0.048 wt % CoQ10 in gum, 1 g chewed 5 min, 60 times/min
Description: Using one of Samples 1 to 5 obtained above, raw materials were blended according to the formulation shown below such that the content of Coenzyme Q10 in 100 g of the resulting stick gum would be 48 mg, and each mixture was molded to form a stick gum. Specific procedures are as follows: A gum base was first kneaded at 70° C. with sugar, corn syrup and glycerol, and the mixture was blended with Lemon Oil No. 2451* (flavoring agent) and San Yellow^‡ No. 3* (colorant). One each of Samples 1, 2, 3, 4 or 5 was then added to the resulting mixture. After cooling to room temperature, each material was rolled and molded to prepare a chewing gum (stick gum). The gum base used in the following formulation was purchased from Lotte, Co., Ltd. (Gum Base LT1).
Each type of the stick gums thus prepared was sampled in a precise amount of 4 g, and placed in a stoppered centrifuge tube. To the tube was added 10 ml of a 20% (v/v) tetrahydrofuran aqueous solution. The tube was then equipped with a Dimroth condenser, and the solution was refluxed, while occasionally mixing it by shaking, in a hot bath at 82° C. for 30 minutes. The refluxed solution was then cooled to room temperature, and 15 ml of diethyl ether was added, followed by extraction with shaking for 10 minutes. […]
The proportion of Coenzyme Q10 released into saliva was determined based on Equation 1: […]

Compound: COC1=C(OC)C(=O)C(C/C=C(\C)CC/C=C(\C)CC/C=C(\C)CC/C=C(\C)CC/C=C(\C)CC/C=C(\C)CC/C=C(\C)CC/C=C(\C)CC/C=C(\C)CCC=C(C)C)=C(C)C1=O [Sample 5, Coenzyme Q10]
- Release (%) of Coenzyme Q10 into saliva [1]: 30.0%
- Release (%) of Coenzyme Q10 into saliva [2]: 0%
